# Test results from patent US8518889B2, “Method of treating cancer with antibodies against long-form leukotriene B4 receptor BLT2” (Korea University Research & Business Foundation, priority 2007, dated 2013).
# Assays:
# LNCaP cells = assay type: cell-based, human; details: 5 μM, 48 hr
# Description: DNA fragmentation was shown by the harvesting of total cellular DNA. Cells were grown in 10 cm plates to 70% confluence with 10% FBS-supplemented medium. Then the media was replaced with serum free RPMI 1640 and the cells were treated with 5 μM LY255283 for 48 hr. Cellular DNA from cells was extracted incubating with lysis buffer (1 mM EDTA, 10 mM Tris, 120 mM NaCl, 1% SDS and 100 μg/ml proteinase K, pH 8.0) for 12 hr at 50° C. The lysate was centrifuged for 10 min at 13,000×g to separate the fragment DNA. The supernatant was then extracted twice with phenol/chloroform/isoamyl alcohol and precipitated with absolute ethanol. […] After electrophoresis, gels were stained with ethidium bromide, and the DNA was visualized by UV light.
# [1] = test system: 253J-BV cell (bladder cancer cell); experiment: morphological changes by light microscopy; assay type: cell-based, human; details: 1-10 μM, 48 hr
# Description: Bladder cancer cells grown in 6 well-plate were treated with 10 μM LY255283, 1 uM U75302 for 48 hr. Cells were then viewed using light microscopy (×100). SV-HUC-1 cell (normal bladder cell) and 253J-BV cell (bladder cancer cell) were treated with different concentrations (1-10 μM) of LY255283 (BLT2 specific antagonist), U75302 (BLT1 specific antagonist) for 48 hr. […] But normal bladder cell line was not effect on morphological change treated with BLT antagonists.
# MDA-MB-468 cells = experiment: DAPI staining, apoptotic cells; assay type: cell-based, human; details: 2, 5, 10 μM, 48 h
# Description: Cells were grown on sterile coverslips at a density of 7×10^5 cells/plate in 35-mm plate. After 24 h, cells incubated in media containing serum-free for 3 h. Then, cells were treated with U75302 (0.5, 1 μM), LY255283 (5, 10 μM) and incubated at 37° C. for 48 h. Then, cells were fixed with 70% cold-ethanol for 30 min at room temperature, and then washed once with PBS. DAPI (50 ng/ml) was added to the fixed cells, incubated for 20 min at room temperature, and washed with PBS. Cells were mounted and examined by fluorescence microscopy. Apoptotic cells were identified by the condensation and fragmentation of their nuclei. The percentage of apoptotic cells was calculated as the ratio of apoptotic cells to total cells counted. A minimum of 500 cells were counted for each treatment.
# [2] = test system: VEGF-induced angiogenesis; experiment: VEGF-induced angiogenesis (Matrigel plug, HUVEC tube formation and transmigration); set-up: species or system FVB mice; details: mouse, in vivo
# Description: FVB wild-type mice or BLT2 TG mice (female, 8-10 wk old) were subcutaneously injected with 400 μl of growth factor-reduced Matrigel from BD Biosciences containing heparin (20 units) and the agents to be tested. After 7 days, the mice were killed, and the solidified Matrigel was excised, fixed in 10% formalin, embedded in paraffin, cut into 5-μm sections and stained with anti-vWF antibody according to the manufacturer's instructions in the Blood Vessel Staining Kit (Chemicon). Each stained Matrigel section was photographed using a BX51 microscope equipped with a DP71 digital camera (Olympus), and the area of vWF-positive blood vessels was calculated using Image J software.
# Growth factor-reduced Matrigel (300 μl; BD Biosciences, San Diego, Calif.) was added to each 24-well plate and polymerized for 12 h at 37° C. […] After 12 hr, five randomly selected areas were photographed using a CKX41 microscope equipped with a DP71 digital camera, and tube lengths were measured and quantified using Image J software, the image processing program developed at the U.S. National Institutes of Health (NIH). […]
# The cells were then allowed to migrate to the lower side of the chambers, which contained LTB4, 12(S)-HETE or VEGF. […] Cell migration was quantified by counting the cells on the lower side of the filter after they were photographed using a CKX41 microscope equipped with a DP71 digital camera. […]
# eosinophil = details: 10 μM; cited from earlier work
# [3] = test system: acute lung injury induced by endotoxin; details: pigs; cited from earlier work
smiles,measurement,setting,value
"CCc1cc(C(C)=O)c(O)cc1OCCCCCC(C)(C)c1nnn[nH]1 [LY255283, 1-[5-ethyl-2-hydroxy-4-[[6-methyl-6-(1H-tetrazol-5-yl)heptyl]oxy]phenyl]-ethanone]",DNA fragmentation,LNCaP cells,A smear of different sizes of DNA fragments was observed
same,morphological change,[1],"exhibited membrane blebbing, detached from plate"
same,apoptosis (DAPI staining),MDA-MB-468 cells,induces apoptosis via a dose-dependent manner
same,VEGF-induced angiogenesis,[2],suppressed VEGF-induced angiogenesis
same,inhibit eosinophil chemotaxis,eosinophil,80%
same,activation of neutrophils and acute lung injury induced by endotoxin,[3],limits activation of neutrophils and prevents acute lung injury
